Laboratory results published in patent US20050043247A1, “Spray-dried amorphous BIBN 4096, process for preparing and the use thereof as inhalative” (Boehringer Ingelheim International GmbH, priority 2003, published 2005).

Columns and labels:
[1] = Determining the particle size by laser diffraction (Frauenhofer diffraction); assay type: physicochemical
Description: a) Determining the Particle Size by Laser Diffraction (Frauenhofer Diffraction):
Measuring method: In order to determine the particle size the powder is fed into a laser diffraction spectrometer using a dispersing unit. The median value X50 refers to the particle size below which 50% of the quantity of particles fall. The Q(5.8) value describes the percentage of particles which are less than 5.8 μm in size.
Measuring device: Laser diffraction spectrometer (HELOS), Messrs. Sympatec
Dispersing unit: RODOS/dispersing pressure: 3 bar
Focal length: 100 mm [measuring range: 0.9 . . . 175 μm]
Evaluation method: HRLD (V 4)

[2] = conventional formulations; cited from earlier work
[3] = Bioavailability after administration by inhalation as powder inhalant; settings: in vivo, inhaled or intranasal; administered by inhalation as powder inhalant; based on the fine content of the formulation (FPD, fine particle dose, USP 24 Suppl. 2000)
[4] = Stability of the amorphous state; assay type: physicochemical; settings: normal conditions (T<50° C., relative humidity<75%); microparticles
[5] = Determining the specific surface area (multi point BET, nitrogen); assay type: physicochemical; settings: spray-dried microparticles from ethanol solution; 16 point BET
Procedure: b) Determining the Specific Surface Area:
Measuring method: The specific surface is determined by exposing the powder sample to a nitrogen atmosphere at different pressures. Cooling the sample causes the nitrogen molecules to be condensed on the surface of the particles. The quantity of condensed nitrogen is determined by means of the drop in pressure in the system and the surface of the sample is calculated by means of the surface nitrogen requirement and the weight of the sample.
Measuring device: Tri Star Multi Point BET, Messrs. Micromeritics
Heating station: VacPrep 061, Messrs. Micromeritics
Heating: approx. 12 h /40° C.

NCCCC[C@H](NC(=O)[C@@H](Cc1cc(Br)c(O)c(Br)c1)NC(=O)N1CCC(N2Cc3ccccc3NC2=O)CC1)C(=O)N1CCN(c2ccncc2)CC1 [A, 1-[N^2-[3,5-dibromo-N-[[4-(3,4-dihydro-2(1H)-oxoquinazolin-3-yl)-1-piperidinyl]carbonyl]-D-tyrosyl]-L-lysyl]-4-(4-pyridinyl)-piperazine]
Particle size X50 ([1]; spray-dried microparticles from 0.5 g (A) in 100 mL ethanol, median particle size, RODOS dispersing pressure 3 bar): 1.2 μm | Particle size Q(5.8) ([1]; spray-dried microparticles from ethanol solution, percentage of particles less than 5.8 μm in size): 99.5% | oral bioavailability [2]: very limited oral bioavailability | bioavailability [3]: ~60% | stability in the amorphous state [4]: stable in the amorphous state | Specific surface area Sm [5]: 21.5 m^2/g
